This passage reports TGI and GI50 results from PubChem BioAssay (NCI).

Some test systems named below: 786-0 renal; HOP-62 NSCLC; K-562 leukemia; NCI-H226 lung; NCI-H460 lung; RXF 393 renal; SK-MEL-2 melanoma; SN12C renal; T-47D breast; U251 CNS.
Test in all cases: DTP human tumour cell line panel, 48 h

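The compound was tested at five concentrations on cells cultured in 96-well plates, with a 48-hour exposure period. GI50 = concentration required for 50% inhibition of growth. The concentration for full growth arrest is given as TGI.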

`Cc1cccc2c1CC(Cc1ccccc1C(=O)O)C2=O` (stereo unspecified): the TGI with 786-0 renal, in the assay with HOP-62 NSCLC, with K-562 leukemia, in the assay on NCI-H226 lung, in the assay on NCI-H460 lung and with RXF 393 renal was > 100 µM each time. Further, the TGI with SK-MEL-2 melanoma, in the assay on SN12C renal, in the assay on T-47D breast and with U251 CNS was > 100 µM each time.

On to `CCOC(=O)[C@@H](Cc1ccc(CCl)cc1)NC(C)=O`, for which the TGI – broadly, the concentration giving total growth inhibition – in the assay with 786-0 renal is 40.4 µM; in the assay with HOP-62 NSCLC it was 75.1 µM; in the assay with K-562 leukemia, > 100 µM; in the assay with NCI-H226 lung it was 98.5 µM; with NCI-H460 lung, 43.2 µM; in the assay on RXF 393 renal, 30.3 µM. Further, the TGI stood at 39.6 µM in the assay with SK-MEL-2 melanoma, 49.6 µM in the assay on SN12C renal, 93.7 µM in the assay on T-47D breast and 40.5 µM in the assay on U251 CNS.

In the case of `C[C@H]1[C@H](C)CC[C@]2(C(=O)OC3OC(CO)C(O)C(O)C3O)CC[C@]3(C)C(=CC[C@@H]4[C@@]5(C)C[C@@H](O)[C@@H]6OC(=O)c7cc(O)c(O)c(O)c7-c7c(cc(O)c(O)c7O)C(=O)OC[C@@]6(CO)[C@@H]5CC[C@]43C)[C@H]12` (stereo partly specified), the TGI was > 53.7 µM in the assay with 786-0 renal; > 100 µM with HOP-62 NSCLC; 78.5 µM with K-562 leukemia; > 100 µM in the assay on NCI-H226 lung; > 100 µM in the assay with NCI-H460 lung; > 100 µM with RXF 393 renal. Moreover, the TGI in the assay on SK-MEL-2 melanoma, with SN12C renal, with T-47D breast and with U251 CNS was > 100 µM throughout.

`NC(=O)C1CCN(Cc2c(Cl)c(Cl)c(CN3CCC(C(N)=O)CC3)c(Cl)c2Cl)CC1`: the TGI is > 100 µM in the assay on 786-0 renal; 39.7 µM in the assay on HOP-62 NSCLC; > 100 µM with K-562 leukemia; > 100 µM in the assay with NCI-H226 lung; > 100 µM in the assay on NCI-H460 lung; > 100 µM in the assay with RXF 393 renal. In addition, the TGI with SK-MEL-2 melanoma, in the assay with SN12C renal, in the assay with T-47D breast and in the assay on U251 CNS was > 100 µM each time.

Take `N#CCCN(CCC#N)c1ccc(C(N=Nc2ccccc2)=Nc2ccc(F)cc2)cc1`: the TGI in the assay on 786-0 renal, in the assay with HOP-62 NSCLC, in the assay on K-562 leukemia, in the assay on NCI-H226 lung, in the assay with NCI-H460 lung and with RXF 393 renal was > 100 µM each time. Moreover, the concentration for total growth inhibition (TGI) in the assay with SK-MEL-2 melanoma, in the assay with SN12C renal, in the assay on T-47D breast and in the assay with U251 CNS was > 100 µM each time.

Consider `C/C(=C\CSCC(N)C(=O)O)CC/C=C(\C)CNc1ccccc1` (stereo unspecified), for which the TGI in the assay on 786-0 renal, in the assay on HOP-62 NSCLC, with K-562 leukemia, in the assay on NCI-H226 lung, with NCI-H460 lung and in the assay on RXF 393 renal was > 100 µM in each case. Also, the TGI with SK-MEL-2 melanoma, in the assay with SN12C renal, in the assay on T-47D breast and with U251 CNS was > 100 µM throughout.

`CCc1nc2c(c(N(C)C)c1C(=O)OC)CCc1ccccc1-2`: the TGI in the assay on 786-0 renal was > 100 µM; with HOP-62 NSCLC it was 63.5 µM; in the assay with K-562 leukemia it was 77.3 µM; with NCI-H226 lung it was 79 µM; with NCI-H460 lung it was > 100 µM; in the assay with RXF 393 renal it was 73.8 µM. Besides, the TGI is 39.5 µM in the assay on SK-MEL-2 melanoma, > 100 µM with SN12C renal, 58.1 µM in the assay on T-47D breast and > 100 µM with U251 CNS.

As to `COC1(CC[C@H](C)COC2OC(CO)C(O)C(O)C2O)O[C@H]2C[C@H]3[C@@H]4CC=C5C[C@@H](OC6OC(CO)C(OC7OC(C)C(O)C(O)C7O)C(O)C6OC6OC(C)C(O)C(O)C6O)CC[C@]5(C)[C@H]4CC[C@]3(C)[C@H]2[C@@H]1C` (stereo partly specified), the TGI in the assay with 786-0 renal was 5.57 µM; with HOP-62 NSCLC, 4.09 µM; in the assay on K-562 leukemia it was > 100 µM; in the assay on NCI-H226 lung, 31.7 µM; in the assay with NCI-H460 lung, 15.1 µM; in the assay on RXF 393 renal it was 18.4 µM. The concentration for total growth inhibition (TGI) with SK-MEL-2 melanoma is 13.6 µM; in the assay with SN12C renal it was > 100 µM; with T-47D breast it was 9.83 µM; in the assay with U251 CNS, 7.36 µM. Also, in the assay with NCI-H460 lung, the GI50 (usually the concentration at which growth is held to half of that of the control) was 4.39 µM.

Consider `CCOC(=O)/C=C/CCC(C)(C)COC(C)=O`, for which the TGI in the assay with 786-0 renal, with HOP-62 NSCLC, with K-562 leukemia, in the assay on NCI-H226 lung, with NCI-H460 lung and with RXF 393 renal was > 10 µM each time. Besides, the TGI in the assay with SK-MEL-2 melanoma, in the assay with SN12C renal, in the assay on T-47D breast and in the assay with U251 CNS was > 10 µM in each case.

Take `C[As+](C)(c1ccc(Br)c([N+](=O)[O-])c1)c1ccc(Br)c([N+](=O)[O-])c1.O=[N+]([O-])O`: the TGI in the assay with 786-0 renal, with HOP-62 NSCLC, in the assay on K-562 leukemia, in the assay on NCI-H226 lung, with NCI-H460 lung and with RXF 393 renal was > 100 µM throughout. In addition, the TGI with SK-MEL-2 melanoma, in the assay with SN12C renal, with T-47D breast and in the assay on U251 CNS was > 100 µM each time.

As for `CC(C)=CCc1c(O)cc2oc(-c3ccc(O)cc3O)cc(=O)c2c1O`, the TGI in the assay with 786-0 renal is 74.5 µM; with HOP-62 NSCLC, > 92.8 µM; in the assay on K-562 leukemia, > 59.2 µM; in the assay on NCI-H226 lung, > 100 µM; with NCI-H460 lung it was > 100 µM; with RXF 393 renal, 64.8 µM. The TGI in the assay on SK-MEL-2 melanoma is 64.7 µM; with SN12C renal it was > 69.1 µM; in the assay on T-47D breast it was 49.8 µM; in the assay with U251 CNS it was > 100 µM.

Regarding `CC(=N/NC(=S)N(C)C)/C(=N\NC(=S)N(C)C)c1ccccc1`, the total growth inhibition concentration (TGI) was 4.04 µM in the assay with 786-0 renal; 5.33 µM with HOP-62 NSCLC; > 100 µM in the assay on K-562 leukemia; 3.13 µM in the assay with NCI-H226 lung; 3.91 µM in the assay with NCI-H460 lung; 2.95 µM in the assay with RXF 393 renal. Moreover, the concentration for total growth inhibition (TGI) in the assay on SK-MEL-2 melanoma stood at 4.69 µM; in the assay with SN12C renal, 3.24 µM; in the assay with T-47D breast, 3.54 µM; with U251 CNS, 7.96 µM.

Regarding `O=C1C=CC(=O)c2c(O)c(N3CCC[C@@H]3CO)c(Cl)c(O)c21`, the TGI turned out to be 3.17 µM in the assay with 786-0 renal; 3.06 µM with HOP-62 NSCLC; 2.22 µM in the assay on K-562 leukemia; 3.16 µM with NCI-H226 lung; 3.52 µM with NCI-H460 lung; 2.98 µM in the assay on RXF 393 renal. For the same molecule, the TGI turned out to be 3.15 µM in the assay with SK-MEL-2 melanoma, 3.25 µM in the assay with SN12C renal, 4.27 µM in the assay with T-47D breast and 3.46 µM with U251 CNS.
